Data reported in article PMC10066365, “Nemacol is a small molecule inhibitor of C. elegans vesicular acetylcholine transporter with anthelmintic potential” (Nature Communications, 2023).
Several values for one entry are separate records, joined by “and”; a condition that tells them apart may be missing. Identical values can stand only once.

System: C. elegans
Test: Suppression of trichlorfon (AChE inhibitor) paralysis, double dose-response, scored after 80 min
Type: in vivo, Caenorhabditis elegans
Conditions: wild-type, bio rep 1-3

With `O[C@@H]1CCCC[C@H]1N1CCC(c2ccccc2)CC1` (racemic) [vesamicol, reference compound] the “% para (percentage of animals able to adopt a clear sinusoidal wave pattern upon touch on the nose)” value (vesamicol 31.75 uM + trichlorfon 0 uM) was 96.4286% and 100%, the “% para (percentage of animals able to adopt a clear sinusoidal wave pattern upon touch on the nose)” value (vesamicol 31.75 uM + trichlorfon 25 uM) was 92.8571% and 96.4286% and 100% and the “% para (percentage of animals able to adopt a clear sinusoidal wave pattern upon touch on the nose)” value (vesamicol 31.75 uM + trichlorfon 50 uM) was 82.1429% and 71.4286% and 96.4286%. For the same compound, the “% para (percentage of animals able to adopt a clear sinusoidal wave pattern upon touch on the nose)” value (vesamicol 31.75 uM + trichlorfon 100 uM) was 64.2857% and 53.5714% and 42.8571%, the “% para (percentage of animals able to adopt a clear sinusoidal wave pattern upon touch on the nose)” value (vesamicol 31.75 uM + trichlorfon 400 uM) was 0% and the “% para (percentage of animals able to adopt a clear sinusoidal wave pattern upon touch on the nose)” value (vesamicol 31.75 uM + trichlorfon 800 uM) was 0%. The “% para (percentage of animals able to adopt a clear sinusoidal wave pattern upon touch on the nose)” value (vesamicol 62.5 uM + trichlorfon 0 uM) was 100%, the “% para (percentage of animals able to adopt a clear sinusoidal wave pattern upon touch on the nose)” value (vesamicol 62.5 uM + trichlorfon 25 uM) was 92.8571% and 100% and the “% para (percentage of animals able to adopt a clear sinusoidal wave pattern upon touch on the nose)” value (vesamicol 62.5 uM + trichlorfon 50 uM) was 89.2857% and 85.7143% and 96.4286%. The “% para (percentage of animals able to adopt a clear sinusoidal wave pattern upon touch on the nose)” value (vesamicol 62.5 uM + trichlorfon 100 uM) was 67.8571% and 64.2857% and 53.5714%, the “% para (percentage of animals able to adopt a clear sinusoidal wave pattern upon touch on the nose)” value (vesamicol 62.5 uM + trichlorfon 400 uM) was 0% and 3.571% and the “% para (percentage of animals able to adopt a clear sinusoidal wave pattern upon touch on the nose)” value (vesamicol 62.5 uM + trichlorfon 800 uM) was 0%. For the same compound, the “% para (percentage of animals able to adopt a clear sinusoidal wave pattern upon touch on the nose)” value (vesamicol 125 uM + trichlorfon 0 uM) was 100%, the “% para (percentage of animals able to adopt a clear sinusoidal wave pattern upon touch on the nose)” value (vesamicol 125 uM + trichlorfon 25 uM) was 96.4286% and 100% and the “% para (percentage of animals able to adopt a clear sinusoidal wave pattern upon touch on the nose)” value (vesamicol 125 uM + trichlorfon 50 uM) was 96.4286% and 78.5714% and 92.8571%. For the same compound, the “% para (percentage of animals able to adopt a clear sinusoidal wave pattern upon touch on the nose)” value (vesamicol 125 uM + trichlorfon 100 uM) was 85.7143% and 67.8571% and 60.7143%, the “% para (percentage of animals able to adopt a clear sinusoidal wave pattern upon touch on the nose)” value (vesamicol 125 uM + trichlorfon 800 uM) was 0% and the “% para (percentage of animals able to adopt a clear sinusoidal wave pattern upon touch on the nose)” value (vesamicol 250 uM + trichlorfon 0 uM) was 96.4286% and 100%. For the same compound, the “% para (percentage of animals able to adopt a clear sinusoidal wave pattern upon touch on the nose)” value (vesamicol 250 uM + trichlorfon 25 uM) was 100% and 96.4286%, the “% para (percentage of animals able to adopt a clear sinusoidal wave pattern upon touch on the nose)” value (vesamicol 250 uM + trichlorfon 50 uM) was 96.4286% and 89.2857% and 100% and the “% para (percentage of animals able to adopt a clear sinusoidal wave pattern upon touch on the nose)” value (vesamicol 250 uM + trichlorfon 100 uM) was 75% and 78.5714%. For the same compound, the “% para (percentage of animals able to adopt a clear sinusoidal wave pattern upon touch on the nose)” value (vesamicol 250 uM + trichlorfon 800 uM) was 0%, the “% para (percentage of animals able to adopt a clear sinusoidal wave pattern upon touch on the nose)” value (vesamicol 500 uM + trichlorfon 0 uM) was 100% and the “% para (percentage of animals able to adopt a clear sinusoidal wave pattern upon touch on the nose)” value (vesamicol 500 uM + trichlorfon 25 uM) was 100% and 92.8571% and 96.4286%. The “% para (percentage of animals able to adopt a clear sinusoidal wave pattern upon touch on the nose)” value (vesamicol 500 uM + trichlorfon 50 uM) was 89.2857% and 96.4286% and 78.5714%, the “% para (percentage of animals able to adopt a clear sinusoidal wave pattern upon touch on the nose)” value (vesamicol 500 uM + trichlorfon 100 uM) was 82.1429% and 85.7143% and the “% para (percentage of animals able to adopt a clear sinusoidal wave pattern upon touch on the nose)” value (vesamicol 500 uM + trichlorfon 200 uM) was 42.8571% and 50% and 71.4286%. The “% para (percentage of animals able to adopt a clear sinusoidal wave pattern upon touch on the nose)” value (vesamicol 500 uM + trichlorfon 800 uM) was 0%.
